Test results: publication PMC11018852, “Scutellarin activates IDH1 to exert antitumor effects in hepatocellular carcinoma progression” (Cell Death & Disease, 2024)

Biological target: T1, IDH1 (Homo sapiens, UniProt O75874)
T1 construct: residues 1–414
Test: biolayer interferometry on recombinant IDH1 (repeat Kd […]); supported by DSF, CETSA, LC-MS/MS adduct at Cys297, enzyme activation EC50 […]
Type: binding

T1 sequence (O75874 whole entry, the tested form may be a part): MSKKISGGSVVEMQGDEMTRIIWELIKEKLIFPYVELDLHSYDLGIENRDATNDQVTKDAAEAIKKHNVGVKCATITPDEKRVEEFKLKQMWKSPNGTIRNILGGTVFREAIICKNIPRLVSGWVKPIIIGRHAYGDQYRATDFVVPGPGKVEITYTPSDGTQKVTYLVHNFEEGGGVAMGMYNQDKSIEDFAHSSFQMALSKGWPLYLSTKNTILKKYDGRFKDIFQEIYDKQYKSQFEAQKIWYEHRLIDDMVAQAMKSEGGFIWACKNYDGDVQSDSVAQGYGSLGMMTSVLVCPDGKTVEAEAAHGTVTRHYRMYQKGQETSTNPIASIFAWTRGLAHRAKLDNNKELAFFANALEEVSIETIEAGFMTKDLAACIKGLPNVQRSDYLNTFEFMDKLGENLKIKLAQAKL

## O=C(O)[C@H]1O[C@@H](Oc2cc3oc(-c4ccc(O)cc4)cc(=O)c3c(O)c2O)[C@H](O)[C@@H](O)[C@@H]1O [Scu, scutellarin]
  Kd: 11.5 µM
